Assay results reported in patent US20250129344A1, “MODIFIED GLUTAMATE DEHYDROGENASE AND APPLICATION THEREOF” (Hunan Lier Biotech Co., Ltd., priority 2021, published 2025).
Positions count from the first letter of the chain named.

How the values were obtained:
Format in all cases: biochemical
Conditions in all cases: PPO 5-100 mM, NADPH 0.15 mM, NH4Cl 50 mM, PBS pH 7.5, 30° C., diluted crude enzyme, 340 nm
[1] = test system: Bacillus velezensis glutamate dehydrogenase (BvGluDH, SEQ ID NO: 1) variant A175G, SEQ ID NO: 3; assay: Dynamic properties (Michaelis-Menten) of BvGluDH mutant, PPO reductive amination
Procedure: (§1) A plurality of reaction systems (200 μL) comprising PBS of 100 mM pH 7.5 (pH was adjusted with aqueous ammonia solution), NADPH (reductive) of 0.15 mM, NH4Cl of 50 mM, diluted (500 folds) crude enzyme solution of 10% volume and the substrate PPO at various concentrations (5-100 mM) were formulated on a 96-well plate. The intensity of the UV absorption at 340 nm was detected at 30° C., and the rate of change in absorption over time (mA/min) was recorded. The obtained parameters were plugged into Michaelis-Menten equation, in which the reaction velocity was calculated with the rate of change in absorption.
(§2) The mutants were prepared with the coding nucleic acid of BvGluDH (SEQ ID NO: 1) as the template, and the enzyme activities and the dynamic parameters Vmax and Km were measured, according to the method of Example 1. The resulted mutants and the enzyme activities and the dynamic parameters thereof are shown in Table 1, and the relative enzyme activity means the percentage of the enzyme activity of the mutant to the enzyme activity of the mutant of SEQ ID NO: 3.

[2] = test system: Bacillus velezensis glutamate dehydrogenase (BvGluDH, SEQ ID NO: 1) variant A175G-A182R, SEQ ID NO: 11; assay: as above
Procedure: as §1, §2

[3] = test system: Bacillus velezensis glutamate dehydrogenase (BvGluDH, SEQ ID NO: 1) variant A175G-G181K, SEQ ID NO: 9; assay: as above
Procedure: as §1, §2

[4] = test system: Bacillus velezensis glutamate dehydrogenase (BvGluDH, SEQ ID NO: 1) variant A175G-G181R, SEQ ID NO: 10; assay: as above
Procedure: as §1, §2

[5] = test system: Bacillus velezensis glutamate dehydrogenase (BvGluDH, SEQ ID NO: 1) variant A175G-I133V, SEQ ID NO: 6; assay: as above
Procedure: as §1, §2

[6] = test system: Bacillus velezensis glutamate dehydrogenase (BvGluDH, SEQ ID NO: 1) variant A175G-L104C, SEQ ID NO: 4; assay: as above
Procedure: as §1, §2

[7] = test system: Bacillus velezensis glutamate dehydrogenase (BvGluDH, SEQ ID NO: 1) variant A175G-P132L, SEQ ID NO: 5; assay: as above
Procedure: as §1, §2

[8] = test system: Bacillus velezensis glutamate dehydrogenase (BvGluDH, SEQ ID NO: 1) variant A175G-V173G, SEQ ID NO: 8; assay: as above
Procedure: as §1, §2

[9] = test system: Bacillus velezensis glutamate dehydrogenase (BvGluDH, SEQ ID NO: 1) variant A175G-V173G-A182R, SEQ ID NO: 21; assay: as above
Procedure: as §1, §2

[10] = test system: Bacillus velezensis glutamate dehydrogenase (BvGluDH, SEQ ID NO: 1) variant A175G-V173S, SEQ ID NO: 7; assay: as above
Procedure: as §1, §2

[11] = target: T1, Lysinibacillus sphaericus glutamate dehydrogenase (LsGluDH, SEQ ID NO: 2) variant A175G, SEQ ID NO: 31 (Lysinibacillus pinottii, UniProt A0ABT2DNY0, A175G); assay: Dynamic properties (Michaelis-Menten) of LsGluDH mutant, PPO reductive amination
T1 sequence (A0ABT2DNY0 1-457 A175G): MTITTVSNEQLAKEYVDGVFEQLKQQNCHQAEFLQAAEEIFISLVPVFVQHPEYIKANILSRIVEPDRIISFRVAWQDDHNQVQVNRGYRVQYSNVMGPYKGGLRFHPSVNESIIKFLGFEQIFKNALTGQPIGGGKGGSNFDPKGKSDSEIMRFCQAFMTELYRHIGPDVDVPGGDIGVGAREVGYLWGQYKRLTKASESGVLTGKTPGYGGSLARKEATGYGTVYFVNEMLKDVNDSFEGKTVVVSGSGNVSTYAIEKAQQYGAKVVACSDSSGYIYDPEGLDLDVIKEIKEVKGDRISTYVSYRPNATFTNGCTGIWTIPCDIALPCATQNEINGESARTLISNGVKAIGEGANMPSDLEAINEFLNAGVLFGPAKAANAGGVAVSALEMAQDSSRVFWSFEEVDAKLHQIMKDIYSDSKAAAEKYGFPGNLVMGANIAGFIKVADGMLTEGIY
Procedure: as §1
as §2, with “LsGluDH” for “BvGluDH”, “2)” for “1)”, “2,” for “1,”, “31.” for “3.”

[12] = target: T2, Lysinibacillus sphaericus glutamate dehydrogenase (LsGluDH, SEQ ID NO: 2) variant A175G-V173S, SEQ ID NO: 34 (Lysinibacillus pinottii, UniProt A0ABT2DNY0, A175G/V173S); assay: as above
T2 sequence (A0ABT2DNY0 1-457 V173S/A175G): T1 sequence (A0ABT2DNY0 1-457 A175G) with V173S
Procedure: as §1
as §2, with “LsGluDH” for “BvGluDH”, “2)” for “1)”, “2,” for “1,”, “31.” for “3.”

CP(=O)(O)CCC(=O)C(=O)O [PPO, 2-carbonyl-4-(hydroxymethylphosphono) butyric acid]
Km [1]: 73 mM
Vmax [1]: 60 mA/min
Km [2]: 46 mM
Vmax [2]: 61 mA/min
Km [3]: 80 mM
Vmax [3]: 70 mA/min
Km [4]: 84 mM
Vmax [4]: 77 mA/min
Km [5]: 43 mM
Vmax [5]: 59 mA/min
Km [6]: 34 mM
Vmax [6]: 60 mA/min
Km [7]: 32 mM
Vmax [7]: 56 mA/min
Km [8]: 53 mM
Vmax [8]: 80 mA/min
Km [9]: 23 mM
Vmax [9]: 71 mA/min
Km [10]: 52 mM
Vmax [10]: 79 mA/min
Km [11]: 49 mM
Vmax [11]: 39 mA/min
Km [12]: 62 mM
Vmax [12]: 106 mA/min
